The values below come from patent EP4818157A1, “N-SUBSTITUTED CYCLIC AMIDE COMPOUND” (Kissei Pharmaceutical Co., Ltd., priority 2023, dated 2025).

The structures appear in SMILES notation.

For the assay, the target named is T1, human TSHR (Homo sapiens, UniProt P16473).
T1 construct: expressed in transfected cells
T1 sequence (P16473 21-764): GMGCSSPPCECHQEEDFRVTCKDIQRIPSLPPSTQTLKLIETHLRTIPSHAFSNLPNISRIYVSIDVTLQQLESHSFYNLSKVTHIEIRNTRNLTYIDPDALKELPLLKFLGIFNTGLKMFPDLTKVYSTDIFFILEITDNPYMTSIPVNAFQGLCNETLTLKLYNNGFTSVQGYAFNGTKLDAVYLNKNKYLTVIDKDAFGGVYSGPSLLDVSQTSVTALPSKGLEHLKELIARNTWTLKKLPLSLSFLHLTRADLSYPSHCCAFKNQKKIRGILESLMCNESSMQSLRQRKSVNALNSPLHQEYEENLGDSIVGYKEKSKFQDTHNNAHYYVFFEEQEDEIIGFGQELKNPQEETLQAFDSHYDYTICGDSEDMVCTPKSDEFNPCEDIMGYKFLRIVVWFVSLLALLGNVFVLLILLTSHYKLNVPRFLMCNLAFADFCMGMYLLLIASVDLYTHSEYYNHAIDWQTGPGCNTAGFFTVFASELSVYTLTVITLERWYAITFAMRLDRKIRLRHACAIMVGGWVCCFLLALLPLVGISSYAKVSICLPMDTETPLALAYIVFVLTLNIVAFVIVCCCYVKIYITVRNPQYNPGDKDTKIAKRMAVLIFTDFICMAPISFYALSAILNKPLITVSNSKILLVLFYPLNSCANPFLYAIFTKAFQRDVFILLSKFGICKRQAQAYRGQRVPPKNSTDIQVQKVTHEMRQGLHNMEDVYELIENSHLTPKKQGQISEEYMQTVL
Description: Measurement of antagonist activity using TSH-induced cAMP production in human TSHR-stably expressing CHO cells. It counts as cell-based. The following applies: human TSH final concentration 50 ng/mL. The procedure:
Measurement of Antagonist Activity Using TSH-induced cAMP Production in Human TSHR-stably Expressing CHO Cells as an Indicator
A gene sequence of human TSHR (reference number NM_000369.2) was inserted into a multiple cloning site of pcDNA3.1(+). The prepared plasmid vector was introduced into CHO cells by a lipofection method to establish human TSHR stably expressing CHO cells. The obtained cells were seeded in a poly-D-lysine-coated 96-well plate at 5 x 10^4 cells/well, and cultured for 1 day in F12 medium containing 10% FBS, 400 µg/mL G418, 50 U/mL penicillin, and 50 µg/mL streptomycin under conditions of 37°C and 5% CO2. After removing a medium, the cells were washed twice with 100 µL per well of an assay buffer (Hanks' Balanced Salt Solution containing 20 mM HEPES and 1 mM IBMX). 30 µL of an assay buffer containing a test compound was added to a well, and the mixture was incubated at room temperature for 15 minutes. Next, 30 µL of an assay buffer containing human TSH (R&D Systems, Inc., final concentration 50 ng/mL) was added, and the mixture was incubated at 37°C for 1 hour. The supernatant was removed, and Lysis and Detection Buffer 2 (Cisbio) was added to prepare a cell lysate by incubating at room temperature for 1 hour. According to the instructions for use of a cAMP Gs HiRange kit (Cisbio), a cell lysate was reacted with d2-labeled cAMP and an anti-cAMP Europium Cryptate labeled antibody (Cisbio) in a 384-well white microplate. Next, a fluorescence intensity ratio (measurement wavelengths 665 nm/620 nm) was measured using a multiplate reader (PHERAstar FSX, BMG LABTECH Japan). A fluorescence intensity ratio of each sample was converted into a cAMP content using a standard curve. A cAMP content was converted into a percentage of a control value, and a cAMP production rate was calculated. Using Prism (Graph Pad Software Inc.), a cAMP production rate was plotted against a test compound concentration, and an IC50 value was calculated. The IC50 of each test compound is shown in the above tables. In the tables, IC50 < 3.0 µM was denoted as A, and 3.0 µM ≤ IC50 < 30 µM was denoted as B. The case where activity was observed but an IC50 value could not be calculated was denoted as C.
As usually defined, the IC50 is the concentration at which inhibition is half-maximal. Read a high IC50 as a need for much substance. The compound `O=C(N[C@@H]1CC[C@@H](C(F)F)N(Cc2cc(C(F)(F)F)ccc2F)C1=O)C1CC1` [Example A-28, N-((3R,6S)-6-(difluoromethyl)-1-(2-fluoro-5-(trifluoromethyl)benzyl)-2-oxopiperidin-3-yl)cyclopropanecarboxamide] showed a half-inhibitory concentration (IC50) of less than 3 µM.

`NC(=O)Nc1cc(Br)cn(Cc2cc(C(F)(F)F)ccc2F)c1=O` [Example B-1, 1-(5-bromo-1-(2-fluoro-5-(trifluoromethyl)benzyl)-2-oxo-1,2-dihydropyridin-3-yl)urea]: the IC50 is less than 3 µM.

Compound `NC(=O)Nc1cc(CCC(=O)O)cn(Cc2cc(C(F)(F)F)ccc2F)c1=O` [Example B-2, 3-(1-(2-fluoro-5-(trifluoromethyl)benzyl)-6-oxo-5-ureido-1,6-dihydropyridin-3-yl)propanoic acid] returned a 50% inhibitory concentration (IC50) of more than 30 µM.

Compound `CC(C)(C)OC(=O)NCCc1cc(NC(N)=O)c(=O)n(Cc2cc(C(F)(F)F)ccc2F)c1` [Example B-3, tert-butyl (2-(1-(2-fluoro-5-(trifluoromethyl)benzyl)-6-oxo-5-ureido-1,6-dihydropyridin-3-yl)ethyl)carbamate] displayed an IC50 of less than 3 µM.

As to `Cc1ccc(NC(N)=O)c(=O)n1Cc1cc(C(F)(F)F)ccc1F` [Example B-4, 1-(1-(2-fluoro-5-(trifluoromethyl)benzyl)-6-methyl-2-oxo-1,2-dihydropyridin-3-yl)urea], the IC50 is less than 3 µM.

Consider `Cc1ccc(NC(N)=O)c(=O)n1Cc1cc(C(F)(F)F)cc(Cl)c1F` [Example B-5, 1-(1-(3-chloro-2-fluoro-5-(trifluoromethyl)benzyl)-6-methyl-2-oxo-1,2-dihydropyridin-3-yl)urea], for which the IC50 was less than 3 µM.

`NC(=O)Nc1cc(C(F)(F)F)cn(Cc2cc(C(F)(F)F)ccc2F)c1=O` [Example B-6, 1-(1-(2-fluoro-5-(trifluoromethyl)benzyl)-2-oxo-5-(trifluoromethyl)-1,2-dihydropyridin-3-yl)urea] displayed an IC50 of less than 3 µM.

In the case of `N#Cc1ccc(NC(N)=O)c(=O)n1Cc1cc(C(F)(F)F)ccc1F` [Example B-7, 1-(6-cyano-1-(2-fluoro-5-(trifluoromethyl)benzyl)-2-oxo-1,2-dihydropyridin-3-yl)urea], the IC50 was less than 3 µM.

For the compound `Cc1ncc(NC(N)=O)c(=O)n1Cc1cc(C(F)(F)F)cc(Cl)c1F` [Example B-8, 1-(1-(3-chloro-2-fluoro-5-(trifluoromethyl)benzyl)-2-methyl-6-oxo-1,6-dihydropyrimidin-5-yl)urea], the IC50 is less than 3 µM.

For the compound `Cc1cnc(NC(N)=O)c(=O)n1Cc1cc(C(F)(F)F)cc(Cl)c1F` [Example B-9, 1-(4-(3-chloro-2-fluoro-5-(trifluoromethyl)benzyl)-5-methyl-3-oxo-3,4-dihydropyrazin-2-yl)urea], the IC50 lay within 3 to 30 µM.

`CNC(=O)Nc1ccc(C)n(Cc2cc(C(F)(F)F)cc(Cl)c2F)c1=O` [Example B-10, 1-(1-(3-chloro-2-fluoro-5-(trifluoromethyl)benzyl)-6-methyl-2-oxo-1,2-dihydropyridin-3-yl)-3-methylurea] yielded an IC50 of less than 3 µM.

Compound `Cc1ccc(NC(=O)NC2CC2)c(=O)n1Cc1cc(C(F)(F)F)cc(Cl)c1F` [Example B-11, 1-(1-(3-chloro-2-fluoro-5-(trifluoromethyl)benzyl)-6-methyl-2-oxo-1,2-dihydropyridin-3-yl)-3-cyclopropylurea] yielded an IC50 of less than 3 µM.

On to `Cc1cccc(CN2C(=O)[C@H](NC(N)=O)Cc3ccccc32)c1` [Example C-1, (R)-1-(1-(3-methylbenzyl)-2-oxo-1,2,3,4-tetrahydroquinolin-3-yl)urea], for which the IC50 fell in the range of 3 to 30 µM.

`N#Cc1cccc(CN2C(=O)[C@H](NC(N)=O)Cc3ccccc32)c1` [Example C-2, (R)-1-(1-(3-cyanobenzyl)-2-oxo-1,2,3,4-tetrahydroquinolin-3-yl)urea] yielded an IC50 of more than 30 µM.

Consider `COc1cccc(CN2C(=O)[C@H](NC(N)=O)Cc3ccccc32)c1` [Example C-3, (R)-1-(1-(3-methoxybenzyl)-2-oxo-1,2,3,4-tetrahydroquinolin-3-yl)urea], for which the IC50 was more than 30 µM.

`NC(=O)N[C@@H]1Cc2ccccc2N(Cc2cc(C(F)F)ccc2F)C1=O` [Example C-4, (R)-1-(1-(5-(difluoromethyl)-2-fluorobenzyl)-2-oxo-1,2,3,4-tetrahydroquinolin-3-yl)urea]: the IC50 was less than 3 µM.

`NC(=O)N[C@@H]1Cc2ccccc2N(Cc2cccc3c2OC(F)(F)O3)C1=O` [Example C-5, (R)-1-(1-((2,2-difluorobenzo[d][1,3]dioxol-4-yl)methyl)-2-oxo-1,2,3,4-tetrahydroquinolin-3-yl)urea]: the IC50 is less than 3 µM.

In the case of `Cc1ccc2c(c1)N(Cc1cccc(C(F)(F)F)c1)C(=O)[C@H](NC(N)=O)C2` [Example C-6, (R)-1-(7-methyl-2-oxo-1-(3-(trifluoromethyl)benzyl)-1,2,3,4-tetrahydroquinolin-3-yl)urea], the IC50 is less than 3 µM.

For `COc1ccc2c(c1)N(Cc1cccc(C(F)(F)F)c1)C(=O)[C@H](NC(N)=O)C2` [Example C-7, (R)-1-(7-methoxy-2-oxo-1-(3-(trifluoromethyl)benzyl)-1,2,3,4-tetrahydroquinolin-3-yl)urea], the IC50 is less than 3 µM.

On to `N#Cc1ccc2c(c1)N(Cc1cccc(C(F)(F)F)c1)C(=O)[C@H](NC(N)=O)C2` [Example C-8, (R)-1-(7-cyano-2-oxo-1-(3-(trifluoromethyl)benzyl)-1,2,3,4-tetrahydroquinolin-3-yl)urea], for which the IC50 is 3 to 30 µM.

`NC(=O)N[C@@H]1Cc2c(F)cccc2N(Cc2cc(C(F)(F)F)ccc2F)C1=O` [Example C-9, (R)-1-(5-fluoro-1-(2-fluoro-5-(trifluoromethyl)benzyl)-2-oxo-1,2,3,4-tetrahydroquinolin-3-yl)urea] showed an IC50 of less than 3 µM.

Compound `NC(=O)N[C@@H]1Cc2ccc(C(F)F)cc2N(Cc2cc(C(F)(F)F)ccc2F)C1=O` [Example C-10, (R)-1-(7-(difluoromethyl)-1-(2-fluoro-5-(trifluoromethyl)benzyl)-2-oxo-1,2,3,4-tetrahydroquinolin-3-yl)urea] displayed an IC50 of less than 3 µM.

`NC(=O)N[C@@H]1Cc2ccc(F)cc2N(Cc2cc(C(F)F)ccc2F)C1=O` [Example C-11, (R)-1-(1-(5-(difluoromethyl)-2-fluorobenzyl)-7-fluoro-2-oxo-1,2,3,4-tetrahydroquinolin-3-yl)urea]: the half-maximal inhibitory concentration (IC50) is less than 3 µM.

Consider `NC(=O)N[C@@H]1Cc2ccc(Cl)cc2N(Cc2cc(C(F)F)ccc2F)C1=O` [Example C-12, (R)-1-(7-chloro-1-(5-(difluoromethyl)-2-fluorobenzyl)-2-oxo-1,2,3,4-tetrahydroquinolin-3-yl)urea], for which the IC50 was less than 3 µM.

With `Cc1ccc2c(c1)N(Cc1cc(C(F)F)ccc1F)C(=O)[C@H](NC(N)=O)C2` [Example C-13, (R)-1-(1-(5-(difluoromethyl)-2-fluorobenzyl)-7-methyl-2-oxo-1,2,3,4-tetrahydroquinolin-3-yl)urea], the IC50 was less than 3 µM.

For the compound `NC(=O)N[C@@H]1Cc2ccc(C(F)F)cc2N(Cc2cc(C(F)F)ccc2F)C1=O` [Example C-14, (R)-1-(7-(difluoromethyl)-1-(5-(difluoromethyl)-2-fluorobenzyl)-2-oxo-1,2,3,4-tetrahydroquinolin-3-yl)urea], the IC50 was less than 3 µM.
